Source: ChEMBL document CHEMBL2040830, “Makomotindoline from Makomotake, Zizania latifolia infected with Ustilago esculenta” (2012)
Active and inactive are the calls of the source. The calls are words filed in the database; no cut-off is given here.

Experiments:
[1] = test system: C6; assay: Cytotoxicity against rat C6 cells assessed as cell death at 10 to 100 uM after 48 hrs by MTT assay; format: functional, cell-based
[2] = test system: C6; assay: Cytotoxicity against rat C6 cells assessed as decrease in cell number at 100 uM after 24 hrs by MTT assay; format: functional; design: scale not given: the % may be the effect or the level left
[3] = test system: C6; assay: Cytotoxicity against rat C6 cells assessed as decrease in cell number at 10 uM after 24 hrs by MTT assay; format: functional; design: scale not given: the % may be the effect or the level left
[4] = test system: C6; assay: Cytotoxicity against rat C6 cells assessed as decrease in cell number at 100 uM after 48 hrs by MTT assay; format: functional; design: scale not given: the % may be the effect or the level left
[5] = test system: C6; assay: Cytotoxicity against rat C6 cells assessed as cell death after 24 to 48 hrs by MTT assay; format: functional, cell-based
[6] = test system: C6; assay: Growth stimulation of rat C6 cells at 100 uM after 48 hrs by MTT assay relative to control; format: functional
[7] = test system: C6; assay: Growth stimulation of rat C6 cells at 100 uM after 24 hrs by MTT assay relative to control; format: functional

Question: Which results are given for `OC[C@@H]1O[C@H](N2c3ccccc3[C@]3(O)CCO[C@H]23)[C@@H](O)[C@H](O)[C@H]1O`?
Answer: Activity [1]: inactive; Activity [2]: 83.9%; Activity [3]: 92.4%; Activity [4]: 87.9%

Question: For `OC[C@H]1O[C@@H](N2c3ccccc3[C@]3(O)CCO[C@H]23)[C@H](O)[C@@H](O)[C@@H]1O`, which Activity [5] is on record?
Answer: inactive

Question: With `O[C@@]12CCO[C@@H]1Nc1ccccc12` as the compound, how does the Activity [6] read?
Answer: 114.2%

Question: And the Activity [7]?
Answer: 112%
